Results: ChEMBL document CHEMBL3612057, “Discovery of indolizines containing triazine moiety as new leads for the development of antitumoral agents targeting mitotic events” (2015)
Activity calls are given as the source filed them. No cut-off for these calls is given here.

What was measured:
CCRF-CEM = assay: Cytotoxicity against human CCRF-CEM cells assessed as growth inhibition at 10 uM after 24 hrs by SRB assay; format: functional
HL-60(TB) = assay: Cytotoxicity against human HL-60(TB) cells assessed as growth inhibition at 10 uM after 24 hrs by SRB assay; format: functional
K562 = assay: Cytotoxicity against human K562 cells assessed as growth inhibition at 10 uM after 24 hrs by SRB assay; format: functional
RPMI-8226 = assay: Cytotoxicity against human RPMI8226 cells assessed as growth inhibition at 10 uM after 24 hrs by SRB assay; format: functional
SR = assay: Cytotoxicity against human SR cells assessed as growth inhibition at 10 uM after 24 hrs by SRB assay; format: functional
A549 = assay: Cytotoxicity against human A549 cells assessed as growth inhibition at 10 uM after 24 hrs by SRB assay; format: functional
HOP-62 = assay: Cytotoxicity against human HOP62 cells assessed as growth inhibition at 10 uM after 24 hrs by SRB assay; format: functional
HOP-92 = assay: Cytotoxicity against human HOP92 cells assessed as growth inhibition at 10 uM after 24 hrs by SRB assay; format: functional
NCI-H226 = assay: Cytotoxicity against human NCI-H226 cells assessed as growth inhibition at 10 uM after 24 hrs by SRB assay; format: functional
NCI-H460 = assay: Cytotoxicity against human NCI-H460 cells assessed as growth inhibition at 10 uM after 24 hrs by SRB assay; format: functional
NCI-H522 = assay: Cytotoxicity against human NCI-H522 cells assessed as growth inhibition at 10 uM after 24 hrs by SRB assay; format: functional
HCT-116 = assay: Cytotoxicity against human HCT116 cells assessed as growth inhibition at 10 uM after 24 hrs by SRB assay; format: functional
SF-295 = assay: Cytotoxicity against human SF295 cells assessed as growth inhibition at 10 uM after 24 hrs by SRB assay; format: functional; conditions: SF-295, 24 h, read-out: GI
SF-539 = assay: Cytotoxicity against human SF539 cells assessed as growth inhibition at 10 uM after 24 hrs by SRB assay; format: functional
SNB-75 = assay: Cytotoxicity against human SNB75 cells assessed as growth inhibition at 10 uM after 24 hrs by SRB assay; format: functional; conditions: SNB-75, 24 h, read-out: GI
U-251 = assay: Cytotoxicity against human U251 cells assessed as growth inhibition at 10 uM after 24 hrs by SRB assay; format: functional
Malme-3M = assay: Cytotoxicity against human MALME-3M cells assessed as growth inhibition at 10 uM after 24 hrs by SRB assay; format: functional
MDA-MB-435 = assay: Cytotoxicity against human MDA-MB-435 cells assessed as growth inhibition at 10 uM after 24 hrs by SRB assay; format: functional
SK-MEL-28 = assay: Cytotoxicity against human SK-MEL-28 cells assessed as growth inhibition at 10 uM after 24 hrs by SRB assay; format: functional
SK-MEL-5 = assay: Cytotoxicity against human SK-MEL-5 cells assessed as growth inhibition at 10 uM after 24 hrs by SRB assay; format: functional
UACC-257 = assay: Cytotoxicity against human UACC257 cells assessed as growth inhibition at 10 uM after 24 hrs by SRB assay; format: functional
UACC-62 = assay: Cytotoxicity against human UACC62 cells assessed as growth inhibition at 10 uM after 24 hrs by SRB assay; format: functional
OVCAR-3 = assay: Cytotoxicity against human OVCAR3 cells assessed as growth inhibition at 10 uM after 24 hrs by SRB assay; format: functional; conditions: OVCAR-3, 24 h, read-out: GI
OVCAR-4 = assay: Cytotoxicity against human OVCAR4 cells assessed as growth inhibition at 10 uM after 24 hrs by SRB assay; format: functional; conditions: OVCAR-4, 24 h, read-out: GI
OVCAR-8 = assay: Cytotoxicity against human OVCAR8 cells assessed as growth inhibition at 10 uM after 24 hrs by SRB assay; format: functional; conditions: OVCAR-8, 24 h, read-out: GI
NCI/ADR-RES = assay: Cytotoxicity against human NCI/ADR-RES cells assessed as growth inhibition at 10 uM after 24 hrs by SRB assay; format: functional; conditions: read-out: GI
SK-OV-3 = assay: Cytotoxicity against human SKOV3 cells assessed as growth inhibition at 10 uM after 24 hrs by SRB assay; format: functional
786-0 = assay: Cytotoxicity against human 786-0 cells assessed as growth inhibition at 10 uM after 24 hrs by SRB assay; format: functional
ACHN = assay: Cytotoxicity against human ACHN cells assessed as growth inhibition at 10 uM after 24 hrs by SRB assay; format: functional; conditions: read-out: GI
CAKI-1 = assay: Cytotoxicity against human CAKI-1 cells assessed as growth inhibition at 10 uM after 24 hrs by SRB assay; format: functional
RXF 393 = assay: Cytotoxicity against human RXF393 cells assessed as growth inhibition at 10 uM after 24 hrs by SRB assay; format: functional; conditions: RXF 393, 24 h, read-out: GI
TK-10 = assay: Cytotoxicity against human TK10 cells assessed as growth inhibition at 10 uM after 24 hrs by SRB assay; format: functional
PC-3 = assay: Cytotoxicity against human PC3 cells assessed as growth inhibition at 10 uM after 24 hrs by SRB assay; format: functional
MCF7 = assay: Cytotoxicity against human MCF7 cells assessed as growth inhibition at 10 uM after 24 hrs by SRB assay; format: functional; conditions: MCF7, 24 h, read-out: GI
MDA-MB-231 = assay: Cytotoxicity against human MDA-MB-231 cells assessed as growth inhibition at 10 uM after 24 hrs by SRB assay; format: functional; conditions: MDA-MB-231, 24 h, read-out: GI
[1] = Cytotoxicity against human Hs578T cells assessed as growth inhibition at 10 uM after 24 hrs by SRB assay; format: functional; conditions: Hs-578T, read-out: GI
T47D = assay: Cytotoxicity against human T47D cells assessed as growth inhibition at 10 uM after 24 hrs by SRB assay; format: functional; conditions: read-out: GI
Ovis aries = organism: Ovis aries; assay: Inhibition of sheep tubulin polymerization at 100 uM by fluorescence assay

| Compound | growth inhibition (GI) (HL-60(TB)) | growth inhibition (GI) (HOP-62) | growth inhibition (GI) (HOP-92) | growth inhibition (GI) (NCI-H226) | growth inhibition (GI) (HCT-116) | inhibition of growth at 10 µM (SF-295) | growth inhibition (GI) (SF-539) | inhibition of growth at 10 µM (SNB-75) | growth inhibition (GI) (U-251) | growth inhibition (GI) (MDA-MB-435) | growth inhibition (GI) (UACC-257) | inhibition of growth at 10 µM (OVCAR-3) | inhibition of growth at 10 µM (OVCAR-4) | inhibition of growth at 10 µM (OVCAR-8) | inhibition of growth at 10 µM (NCI/ADR-RES) | inhibition of growth at 10 µM (ACHN) | inhibition of growth at 10 µM (RXF 393) | growth inhibition (GI) (TK-10) | inhibition of growth at 10 µM (MCF7) | inhibition of growth at 10 µM (MDA-MB-231) | other results |
| --- | --- | --- | --- | --- | --- | --- | --- | --- | --- | --- | --- | --- | --- | --- | --- | --- | --- | --- | --- | --- | --- |
| COc1nc(OC)nc(-c2cc(C(=O)c3cc(OC)c(OC)c(OC)c3)n3c(-c4ccccc4)cccc23)n1 | inactive | inactive | inactive | inactive | inactive | 40% | inactive | 23% | inactive | inactive | inactive | 28% | 18% | 41% | 38% | 30% | 15% | inactive | 22% | 23% | inhibition of growth at 10 µM (CCRF-CEM; read-out: GI): 62%; inhibition of growth at 10 µM (K562; K562, 24 h, read-out: GI): 29%; inhibition of growth at 10 µM (RPMI-8226; RPMI-8226, 24 h, read-out: GI): 52%; inhibition of growth at 10 µM (SR; read-out: GI): 29%; inhibition of growth at 10 µM (A549; A549, 24 h, read-out: GI): 28%; inhibition of growth at 10 µM (NCI-H460; NCI-H460, 24 h, read-out: GI): 14%; inhibition of growth at 10 µM (NCI-H522; NCI-H522, 24 h, read-out: GI): 11%; growth inhibition (GI) (Malme-3M): inactive; growth inhibition (GI) (SK-MEL-28): inactive; inhibition of growth at 10 µM (SK-MEL-5; SK-MEL-5, 24 h, read-out: GI): 67%; inhibition of growth at 10 µM (UACC-62; UACC-62, 24 h, read-out: GI): 39%; growth inhibition (GI) (SK-OV-3): inactive; growth inhibition (GI) (786-0): inactive; inhibition of growth at 10 µM (CAKI-1; CAKI-1, 24 h, read-out: GI): 43%; inhibition of growth at 10 µM (PC-3; PC-3, 24 h, read-out: GI): 37%; inhibition of growth at 10 µM [1]: 14%; inhibition of growth at 10 µM (T47D): 32%; inhibition (Ovis aries): inactive |
| COc1nc(OC)nc(-c2cc(C(=O)c3ccc(Br)cc3)n3c(C)cccc23)n1 | inactive | inactive | inactive | inactive | inactive | 22% | inactive | 75% | inactive | inactive | inactive | 15% | 18% | 29% | 14% | 30% | 36% | inactive | 24% | 27% | growth inhibition (GI) (CCRF-CEM): inactive; growth inhibition (GI) (K562): inactive; growth inhibition (GI) (RPMI-8226): inactive; growth inhibition (GI) (SR): inactive; growth inhibition (GI) (A549): inactive; growth inhibition (GI) (NCI-H460): inactive; growth inhibition (GI) (NCI-H522): inactive; inhibition of growth at 10 µM (Malme-3M; read-out: GI): 18%; inhibition of growth at 10 µM (SK-MEL-28; SK-MEL-28, 24 h, read-out: GI): 14%; growth inhibition (GI) (SK-MEL-5): inactive; growth inhibition (GI) (UACC-62): inactive; inhibition of growth at 10 µM (SK-OV-3; SK-OV-3, 24 h, read-out: GI): 20%; inhibition of growth at 10 µM (786-0; 786-0, 24 h, read-out: GI): 14%; growth inhibition (GI) (CAKI-1): inactive; growth inhibition (GI) (PC-3): inactive; inhibition of growth at 10 µM [1]: 22%; inhibition of growth at 10 µM (T47D): 19%; inhibition (Ovis aries): inactive |
